pEC50: −log10 of the molar value. Like-named read-outs stand apart in the source and are kept apart here. *1 amine or outer side, *2 acyl side, *3 side chain or, on linkers, in order; H or OH if unused. Where a SMILES comes first, the peptide text is derived from it. Side-chain parts run from the residue outwards. [ ]: non-standard residue; d: D form. The star is where a group is joined. C18 diacid = O=C(O)CCCCCCCCCCCCCCCCC(=O)*; γGlu = O=C(O)[C@H](CCC(=O)[*:2])N[*:1]; AEEA = NCCOCCOCC(=O)O; Aib = CC(C)(N)C(=O)O
Key:
ob/ob mice = test: Blood glucose reducing experiment, single subcutaneous injection in ob/ob mice; assay type: in vivo; conditions: 100 μg/kg single s.c.; for Blood glucose at different time after administration, 0 h: 0 h (before administration); for Blood glucose at different time after administration, 0 h / Blood glucose at different time after administration, 2 h / Blood glucose at different time after administration, 4 h / Blood glucose at different time after administration, 6 h / Blood glucose at different time after administration, 10 h / Blood glucose at different time after administration, 24 h / Blood glucose at different time after administration, 34 h / AUC0-24 h Glu: X ± s, n = 7; for AUC0-24 h Glu: blood glucose curve area within 24 h; for AUC0-24 h Glu Decrease rate: versus model control group;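 as to all read-outs here: random blood glucose read at each time point, decrease rate given as percentage fall versus the model control group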
mGIPR = molecular target: T1, mGIPR (Mus musculus, UniProt Q0P543); test: GIPR agonist activity, cAMP in transfected HEK293 cells; assay type: cell-based
T1 construct: expressed in transfected cells; host or cells: HEK293
T1 sequence (Q0P543 19-460): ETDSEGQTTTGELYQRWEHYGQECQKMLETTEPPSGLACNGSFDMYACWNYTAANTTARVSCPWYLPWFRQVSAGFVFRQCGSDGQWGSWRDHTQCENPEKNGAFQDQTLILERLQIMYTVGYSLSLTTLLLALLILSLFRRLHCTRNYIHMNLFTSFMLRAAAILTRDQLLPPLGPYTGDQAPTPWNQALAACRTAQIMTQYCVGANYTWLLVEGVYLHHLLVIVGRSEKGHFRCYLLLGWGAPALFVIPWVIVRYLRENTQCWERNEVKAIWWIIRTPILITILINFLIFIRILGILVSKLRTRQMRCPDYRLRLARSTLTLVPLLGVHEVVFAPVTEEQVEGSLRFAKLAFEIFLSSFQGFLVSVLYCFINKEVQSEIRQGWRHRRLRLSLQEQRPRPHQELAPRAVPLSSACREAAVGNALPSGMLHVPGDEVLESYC
Procedure: HEK293 cells were co-transfected with cDNA encoding GLP-1R or GIPR. In a test for determining the compound, the cells were inoculated in a 96-well plate 2 h in advance, the polypeptide compound was dissolved with DMSO, and diluted to different multiples with a culture medium containing 0.1% bovine serum albumin and added to the co-transfected cells.

mGLP-1R = molecular target: T2, mGLP-1R (Mus musculus, UniProt O35659); test: GLP-1R agonist activity, cAMP in transfected HEK293 cells; assay type: cell-based
T2 construct: expressed in transfected cells; host or cells: HEK293
T2 sequence (O35659 22-463): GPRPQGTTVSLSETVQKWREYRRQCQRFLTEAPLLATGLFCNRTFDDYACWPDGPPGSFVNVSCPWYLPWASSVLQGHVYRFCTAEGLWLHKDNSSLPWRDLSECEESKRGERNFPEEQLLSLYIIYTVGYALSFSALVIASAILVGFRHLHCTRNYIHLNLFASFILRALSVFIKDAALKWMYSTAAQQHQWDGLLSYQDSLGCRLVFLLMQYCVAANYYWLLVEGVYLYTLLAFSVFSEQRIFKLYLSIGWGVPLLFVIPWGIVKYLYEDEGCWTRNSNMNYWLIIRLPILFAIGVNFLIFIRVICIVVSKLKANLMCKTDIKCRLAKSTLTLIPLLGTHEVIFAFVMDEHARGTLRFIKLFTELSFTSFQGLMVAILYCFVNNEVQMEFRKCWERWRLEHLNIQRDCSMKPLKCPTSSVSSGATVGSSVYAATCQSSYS

[1] = Effect on random weight of ob/ob mice after single subcutaneous injection; assay type: in vivo; conditions: 100 μg/kg single s.c., X ± s, n = 7

Compound | Blood glucose at different time after administration, 0 h (ob/ob mice) [mmol/L] | Decrease rate of blood glucose at different time after administration, 2 h (ob/ob mice) [%] | Blood glucose at different time after administration, 2 h (ob/ob mice) [mmol/L] | Decrease rate of blood glucose at different time after administration, 4 h (ob/ob mice) [%] | Blood glucose at different time after administration, 4 h (ob/ob mice) [mmol/L] | Decrease rate of blood glucose at different time after administration, 6 h (ob/ob mice) [%] | Blood glucose at different time after administration, 6 h (ob/ob mice) [mmol/L] | Decrease rate of blood glucose at different time after administration, 10 h (ob/ob mice) [%] | Blood glucose at different time after administration, 10 h (ob/ob mice) [mmol/L] | Decrease rate of blood glucose at different time after administration, 24 h (ob/ob mice) [%] | Blood glucose at different time after administration, 24 h (ob/ob mice) [mmol/L] | Decrease rate of blood glucose at different time after administration, 34 h (ob/ob mice) [%] | Blood glucose at different time after administration, 34 h (ob/ob mice) [mmol/L] | Decrease rate of blood glucose at different time after administration, 48 h (ob/ob mice) [%] | AUC0-24 h Glu (ob/ob mice) [mmol·h/L] | AUC0-24 h Glu Decrease rate (ob/ob mice) [%] | Changes of random body weight at different time after administration, 0 h [1] [g] | Random body weight at different time after administration, 0 h [1] [g] | Changes of random body weight at different time after administration, 24 h [1] [g] | Random body weight at different time after administration, 24 h [1] [g] | also measured
CC[C@H](C)[C@H](NC(=O)[C@H](CCCCN)NC(=O)[C@H](CC(=O)O)NC(=O)[C@H](CC(C)C)NC(=O)[C@H](C)NC(=O)[C@@H](NC(=O)[C@H](CO)NC(=O)[C@H](Cc1ccc(O)cc1)NC(=O)[C@H](CC(=O)O)NC(=O)[C@H](CO)NC(=O)[C@@H](NC(=O)[C@H](Cc1ccccc1)NC(=O)[C@@H](NC(=O)CNC(=O)[C@H](CCC(=O)O)NC(=O)[C@H](C)NC(=O)[C@@H](N)Cc1ccc(O)cc1)[C@@H](C)O)[C@@H](C)O)[C@@H](C)CC)C(=O)N[C@@H](C)C(=O)N[C@@H](CCC(N)=O)C(=O)N[C@@H](CCCCNC(=O)COCCOCCNC(=O)COCCOCCNC(=O)CC[C@H](NC(=O)CCCCCCCCCCCCCCCCC(=O)O)C(=O)O)C(=O)N[C@@H](C)C(=O)N[C@@H](Cc1ccccc1)C(=O)N[C@H](C(=O)N[C@@H](CCC(N)=O)C(=O)N[C@@H](Cc1c[nH]c2ccccc12)C(=O)N[C@@H](CC(C)C)C(=O)N[C@H](C(=O)N[C@@H](C)C(=O)NCC(=O)NCC(=O)N1CCC[C@H]1C(=O)N[C@@H](CO)C(=O)N[C@@H](CO)C(=O)NCC(=O)N[C@@H](C)C(=O)N1CCC[C@H]1C(=O)N1CCC[C@H]1C(=O)N1CCC[C@H]1C(=O)N[C@@H](CO)C(N)=O)[C@@H](C)CC)C(C)C [ID NO: 4] | 20.43 ± 0.68 | 50.0 | 10.21 ± 1.06 | 51.6 | 9.89 ± 0.83 | 52.9 | 9.63 ± 0.95 | 51.7 | 9.86 ± 0.96 | 46.1 | 11.01 ± 0.83 | 28.7 | 14.56 ± 1.42 | 15.2 | 255.33 ± 20.13 | 50.0 | 0.0 ± 0.0 | 43.6 ± 1.0 | -1.4 ± 0.2 | 42.2 ± 1.0 | pEC50 (mGIPR): 11.28; pEC50 (mGLP-1R): 11.83; Changes of random body weight at different time after administration, 48 h [1]: -0.6 ± 0.1 g; Random body weight at different time after administration, 48 h [1]: 42.9 ± 1.1 g
CC[C@H](C)[C@H](NC(=O)[C@H](CC(C)C)NC(=O)[C@H](Cc1c[nH]c2ccccc12)NC(=O)[C@H](CCC(N)=O)NC(=O)[C@@H](NC(=O)[C@H](Cc1ccccc1)NC(=O)[C@H](C)NC(=O)[C@H](CCCCNC(=O)COCCOCCNC(=O)COCCOCCNC(=O)CC[C@H](NC(=O)CCCCCCCCCCCCCCCCC(=O)O)C(=O)O)NC(=O)[C@H](CCC(N)=O)NC(=O)[C@H](C)NC(=O)[C@@H](NC(=O)[C@H](CCCCN)NC(=O)[C@H](CC(=O)O)NC(=O)[C@H](CC(C)C)NC(=O)C(C)(C)NC(=O)[C@@H](NC(=O)[C@H](CO)NC(=O)[C@H](Cc1ccc(O)cc1)NC(=O)[C@H](CC(=O)O)NC(=O)[C@H](CO)NC(=O)[C@@H](NC(=O)[C@H](Cc1ccccc1)NC(=O)[C@@H](NC(=O)CNC(=O)[C@H](CCC(=O)O)NC(=O)[C@H](C)NC(=O)[C@@H](N)Cc1ccc(O)cc1)[C@@H](C)O)[C@@H](C)O)[C@@H](C)CC)[C@@H](C)CC)C(C)C)C(=O)N[C@@H](C)C(=O)NCC(=O)NCC(=O)N1CCC[C@H]1C(=O)N[C@@H](CO)C(=O)N[C@@H](CO)C(=O)NCC(=O)N[C@@H](C)C(=O)N1CCC[C@H]1C(=O)N1CCC[C@H]1C(=O)N1CCC[C@H]1C(=O)N[C@@H](CO)C(N)=O [ID NO: 5] (H-YAEGTFTSDYSI[Aib]LDKIAQK([AEEA-AEEA-γGlu-C18 diacid])AFVQWLIAGGPSSGAPPPS-NH2) | 20.57 ± 0.84 | 50.8 | 10.12 ± 1.20 | 53.6 | 9.54 ± 0.84 | 54.2 | 9.43 ± 0.86 | 52.6 | 9.76 ± 0.96 | 47.1 | 10.89 ± 1.43 | 35.2 | 13.33 ± 2.10 | 15.8 | 252.25 ± 19.68 | 50.6 | 0.0 ± 0.0 | 43.5 ± 0.9 | -1.4 ± 0.2 | 42.0 ± 0.9 | pEC50 (mGIPR; HEK293 cells transfected with GIPR, cAMP, 20 min incubation, read-out: mGIPR EC50): 11.19; pEC50 (mGLP-1R; HEK293 cells transfected with GLP-1R, cAMP, 20 min incubation, read-out: mGLP-1R EC50): 11.52; Changes of random body weight at different time after administration, 48 h [1]: -0.6 ± 0.2 g; Random body weight at different time after administration, 48 h [1]: 42.9 ± 0.9 g
